How the values were obtained:
Assay in all cases: relative viability (nuclei count vs DMSO), 5 days (fraction); higher = more cells survive
NCI-H2009 = system: NCI-H2009
Summary of the method: (§1)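 Lung cancer cell lines, seeded in 1536-well plates, were treated the following day by pin tool with a single drug or with five library-drug doses (not always all listed) in √10 steps on top of a fixed anchor-drug dose. Cells were fixed and nuclei stained in one step after 5 days, and nuclei were counted. Relative viability is the nuclei count for treated wells divided by that for vehicle wells, reported as medians of duplicate plates.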

NCI-H522 = system: NCI-H522
Summary of the method: as §1

NCI-H2342 = system: NCI-H2342
Summary of the method: as §1

NCI-H460 = system: NCI-H460
Summary of the method: as §1

HCC-78 = system: HCC-78
Summary of the method: as §1

A549 = system: A549
Summary of the method: as §1

NCI-H661 = system: NCI-H661
Summary of the method: as §1

NCI-H1648 = system: NCI-H1648
Summary of the method: as §1

O=c1cc(N2CCOCC2)oc2c(-c3cccc4c3sc3ccccc34)cccc12 + Nc1ncn([C@H]2C[C@H](O)[C@@H](CO)O2)c(=O)n1 [Decitabine] (partner 2 µM)
relative viability (NCI-H2009; first compound 0.01 µM): 0.368
relative viability (NCI-H2009; first compound 0.03162 µM): 0.412
relative viability (NCI-H2009; first compound 0.1 µM): 0.332
relative viability (NCI-H2009; first compound 0.3162 µM): 0.368
relative viability (NCI-H2009; first compound 1 µM): 0.399
relative viability (NCI-H522; first compound 0.01 µM): 0.709
relative viability (NCI-H522; first compound 0.03162 µM): 0.662
relative viability (NCI-H522; first compound 0.1 µM): 0.669
relative viability (NCI-H522; first compound 0.3162 µM): 0.649
relative viability (NCI-H522; first compound 1 µM): 0.696
relative viability (NCI-H2342; first compound 0.01 µM): 0.631
relative viability (NCI-H2342; first compound 0.03162 µM): 0.652
relative viability (NCI-H2342; first compound 0.1 µM): 0.774
relative viability (NCI-H2342; first compound 0.3162 µM): 0.726
relative viability (NCI-H2342; first compound 1 µM): 0.672
relative viability (NCI-H460; first compound 0.01 µM): 0.509
relative viability (NCI-H460; first compound 0.03162 µM): 0.48
relative viability (NCI-H460; first compound 0.1 µM): 0.499
relative viability (NCI-H460; first compound 0.3162 µM): 0.472
relative viability (NCI-H460; first compound 1 µM): 0.51
relative viability (HCC-78; first compound 0.01 µM): 0.611
relative viability (HCC-78; first compound 0.03162 µM): 0.716
relative viability (HCC-78; first compound 0.1 µM): 0.544
relative viability (HCC-78; first compound 0.3162 µM): 0.652
relative viability (HCC-78; first compound 1 µM): 0.692
relative viability (A549; first compound 0.01 µM): 0.26
relative viability (A549; first compound 0.03162 µM): 0.242
relative viability (A549; first compound 0.1 µM): 0.189
relative viability (A549; first compound 0.3162 µM): 0.246
relative viability (A549; first compound 1 µM): 0.288
relative viability (NCI-H661; first compound 0.01 µM): 0.563
relative viability (NCI-H661; first compound 0.03162 µM): 0.53
relative viability (NCI-H661; first compound 0.1 µM): 0.599
relative viability (NCI-H661; first compound 0.3162 µM): 0.535
relative viability (NCI-H661; first compound 1 µM): 0.587
relative viability (NCI-H1648; first compound 0.03162 µM): 0.594
relative viability (NCI-H1648; first compound 0.1 µM): 0.496
relative viability (NCI-H1648; first compound 0.3162 µM): 0.466
relative viability (NCI-H1648; first compound 1 µM): 0.458

O=c1cc(-c2cccc3c2Sc2ccccc2S3)oc(N2CCOCC2)c1 + Nc1ncn([C@H]2C[C@H](O)[C@@H](CO)O2)c(=O)n1 [Decitabine] (partner 2 µM)
relative viability (NCI-H2009; first compound 0.08 µM): 0.375
relative viability (NCI-H2009; first compound 0.253 µM): 0.358
relative viability (NCI-H2009; first compound 0.8 µM): 0.38
relative viability (NCI-H2009; first compound 2.53 µM): 0.348
relative viability (NCI-H2009; first compound 8 µM): 0.343
relative viability (NCI-H522; first compound 0.08 µM): 0.693
relative viability (NCI-H522; first compound 0.253 µM): 0.743
relative viability (NCI-H522; first compound 0.8 µM): 0.689
relative viability (NCI-H522; first compound 2.53 µM): 0.66
relative viability (NCI-H522; first compound 8 µM): 0.796
relative viability (NCI-H2342; first compound 0.08 µM): 0.662
relative viability (NCI-H2342; first compound 0.253 µM): 0.794
relative viability (NCI-H2342; first compound 0.8 µM): 0.734
relative viability (NCI-H2342; first compound 2.53 µM): 0.721
relative viability (NCI-H2342; first compound 8 µM): 0.77
relative viability (NCI-H460; first compound 0.08 µM): 0.476
relative viability (NCI-H460; first compound 0.253 µM): 0.659
relative viability (NCI-H460; first compound 0.8 µM): 0.462
relative viability (NCI-H460; first compound 2.53 µM): 0.468
relative viability (NCI-H460; first compound 8 µM): 0.669
relative viability (HCC-78; first compound 0.08 µM): 0.653
relative viability (HCC-78; first compound 0.253 µM): 0.906
relative viability (HCC-78; first compound 0.8 µM): 0.647
relative viability (HCC-78; first compound 2.53 µM): 0.664
relative viability (HCC-78; first compound 8 µM): 0.74
relative viability (A549; first compound 0.08 µM): 0.259
relative viability (A549; first compound 0.253 µM): 0.325
relative viability (A549; first compound 0.8 µM): 0.263
relative viability (A549; first compound 2.53 µM): 0.106
relative viability (A549; first compound 8 µM): 0.334
relative viability (NCI-H661; first compound 0.08 µM): 0.536
relative viability (NCI-H661; first compound 0.253 µM): 0.572
relative viability (NCI-H661; first compound 0.8 µM): 0.518
relative viability (NCI-H661; first compound 2.53 µM): 0.551
relative viability (NCI-H661; first compound 8 µM): 0.558
relative viability (NCI-H1648; first compound 0.253 µM): 0.501
relative viability (NCI-H1648; first compound 0.8 µM): 0.553
relative viability (NCI-H1648; first compound 8 µM): 0.54

— the supplement of paper PMC10307832
